Experiments:
Test in all cases: Kinase selectivity: percentage inhibition of each specific kinase at 1 μM inhibitor concentration
Assay type in all cases: biochemical
[1] = target: each specific kinase (kinase selectivity panel, Table 2) (Homo sapiens, UniProt P08069); conditions: IGF-1R
Method: (§1) Values are expressed as percentage inhibition of the each specific kinase at 1 μM inhibitor concentration.

[2] = target: each specific kinase (kinase selectivity panel, Table 2) (Homo sapiens, UniProt Q16513); conditions: PRK2
Method: as §1

[3] = target: each specific kinase (kinase selectivity panel, Table 2) (Homo sapiens, UniProt Q14012); conditions: CAMK1
Chain of each specific kinase (kinase selectivity panel, Table 2) (Homo sapiens, UniProt Q14012) (Q14012 whole entry): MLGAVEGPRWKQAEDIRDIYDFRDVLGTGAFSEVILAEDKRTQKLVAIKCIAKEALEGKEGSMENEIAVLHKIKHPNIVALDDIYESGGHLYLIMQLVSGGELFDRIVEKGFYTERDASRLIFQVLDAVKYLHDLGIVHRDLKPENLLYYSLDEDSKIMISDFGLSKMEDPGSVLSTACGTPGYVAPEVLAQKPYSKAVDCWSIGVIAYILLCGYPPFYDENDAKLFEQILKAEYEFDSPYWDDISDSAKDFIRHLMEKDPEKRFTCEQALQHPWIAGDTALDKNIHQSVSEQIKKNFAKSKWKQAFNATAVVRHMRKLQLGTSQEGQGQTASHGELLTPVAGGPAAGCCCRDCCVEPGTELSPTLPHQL
Method: as §1

[4] = target: each specific kinase (kinase selectivity panel, Table 2) (Homo sapiens, UniProt P12931); conditions: Src
Method: as §1

[5] = target: each specific kinase (kinase selectivity panel, Table 2) (Homo sapiens, UniProt Q8N4C8); conditions: MINK1
Method: as §1

[6] = target: each specific kinase (kinase selectivity panel, Table 2) (Homo sapiens, UniProt P48730); conditions: CK1
Chain of each specific kinase (kinase selectivity panel, Table 2) (Homo sapiens, UniProt P48730) (P48730 whole entry): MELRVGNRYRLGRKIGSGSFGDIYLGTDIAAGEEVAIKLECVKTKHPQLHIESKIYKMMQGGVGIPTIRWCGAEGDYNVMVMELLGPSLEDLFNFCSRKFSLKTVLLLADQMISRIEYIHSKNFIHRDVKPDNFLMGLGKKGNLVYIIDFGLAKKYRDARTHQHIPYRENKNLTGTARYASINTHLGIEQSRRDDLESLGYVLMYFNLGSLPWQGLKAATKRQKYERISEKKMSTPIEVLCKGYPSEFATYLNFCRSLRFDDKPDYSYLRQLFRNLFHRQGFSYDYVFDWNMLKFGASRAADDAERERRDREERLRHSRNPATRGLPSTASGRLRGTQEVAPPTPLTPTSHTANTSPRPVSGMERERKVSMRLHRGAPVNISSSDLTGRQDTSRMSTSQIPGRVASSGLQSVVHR
Method: as §1

[7] = target: each specific kinase (kinase selectivity panel, Table 2) (Homo sapiens, UniProt O43353); conditions: RIPK2
Chain of each specific kinase (kinase selectivity panel, Table 2) (Homo sapiens, UniProt O43353) (O43353 whole entry): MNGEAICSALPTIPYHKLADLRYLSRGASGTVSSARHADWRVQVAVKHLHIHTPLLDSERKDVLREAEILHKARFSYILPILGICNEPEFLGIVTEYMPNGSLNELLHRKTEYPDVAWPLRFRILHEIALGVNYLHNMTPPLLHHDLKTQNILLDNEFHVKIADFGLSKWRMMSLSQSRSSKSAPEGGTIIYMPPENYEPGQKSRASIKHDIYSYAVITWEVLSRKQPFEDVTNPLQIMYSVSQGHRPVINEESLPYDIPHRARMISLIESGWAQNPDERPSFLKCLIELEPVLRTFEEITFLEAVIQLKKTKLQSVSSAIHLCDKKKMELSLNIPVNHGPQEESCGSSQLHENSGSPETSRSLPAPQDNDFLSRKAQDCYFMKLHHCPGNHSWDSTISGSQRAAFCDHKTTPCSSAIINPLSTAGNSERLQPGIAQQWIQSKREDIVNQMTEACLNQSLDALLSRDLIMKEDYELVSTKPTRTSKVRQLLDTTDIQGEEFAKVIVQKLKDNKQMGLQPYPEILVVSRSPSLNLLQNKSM
Method: as §1

[8] = target: each specific kinase (kinase selectivity panel, Table 2) (Homo sapiens, UniProt Q15139); conditions: PKD1
Method: as §1

[9] = target: each specific kinase (kinase selectivity panel, Table 2) (Homo sapiens, UniProt Q9NWZ3); conditions: IRAK4
Method: as §1

[10] = target: each specific kinase (kinase selectivity panel, Table 2) (Homo sapiens, UniProt O60674); conditions: JAK2
Chain of each specific kinase (kinase selectivity panel, Table 2) (Homo sapiens, UniProt O60674) (O60674 whole entry): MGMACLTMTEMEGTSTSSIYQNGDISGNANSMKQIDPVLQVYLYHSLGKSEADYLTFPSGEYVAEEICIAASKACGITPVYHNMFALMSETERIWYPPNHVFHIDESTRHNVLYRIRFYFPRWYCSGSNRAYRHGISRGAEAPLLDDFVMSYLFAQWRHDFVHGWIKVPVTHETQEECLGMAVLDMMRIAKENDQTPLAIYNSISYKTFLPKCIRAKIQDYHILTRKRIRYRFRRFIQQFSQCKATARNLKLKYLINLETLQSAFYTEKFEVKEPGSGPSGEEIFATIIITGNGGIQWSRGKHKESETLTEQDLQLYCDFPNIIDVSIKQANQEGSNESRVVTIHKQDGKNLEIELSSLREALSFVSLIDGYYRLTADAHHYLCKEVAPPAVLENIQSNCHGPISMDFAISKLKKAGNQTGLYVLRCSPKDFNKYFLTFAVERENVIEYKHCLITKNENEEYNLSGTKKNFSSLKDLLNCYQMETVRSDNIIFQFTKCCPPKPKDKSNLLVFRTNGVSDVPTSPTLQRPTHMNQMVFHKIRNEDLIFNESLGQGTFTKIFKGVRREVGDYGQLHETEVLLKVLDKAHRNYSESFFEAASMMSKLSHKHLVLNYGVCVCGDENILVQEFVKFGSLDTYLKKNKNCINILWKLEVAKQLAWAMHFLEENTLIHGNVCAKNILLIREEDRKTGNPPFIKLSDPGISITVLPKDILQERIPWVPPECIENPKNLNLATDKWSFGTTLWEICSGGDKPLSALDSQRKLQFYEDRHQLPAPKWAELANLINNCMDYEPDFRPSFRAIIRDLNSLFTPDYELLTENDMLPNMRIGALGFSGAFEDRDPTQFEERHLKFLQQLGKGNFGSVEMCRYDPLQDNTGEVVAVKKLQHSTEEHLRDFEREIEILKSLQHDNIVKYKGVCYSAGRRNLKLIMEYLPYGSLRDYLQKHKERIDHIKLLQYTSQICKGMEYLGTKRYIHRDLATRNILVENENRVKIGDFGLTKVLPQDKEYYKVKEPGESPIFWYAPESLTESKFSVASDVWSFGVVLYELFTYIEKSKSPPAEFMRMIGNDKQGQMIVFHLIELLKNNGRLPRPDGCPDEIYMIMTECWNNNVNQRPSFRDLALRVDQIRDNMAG
Method: as §1

[11] = target: each specific kinase (kinase selectivity panel, Table 2) (Homo sapiens, UniProt P11362); conditions: FGF-R1
Chain of each specific kinase (kinase selectivity panel, Table 2) (Homo sapiens, UniProt P11362) (P11362 22-822): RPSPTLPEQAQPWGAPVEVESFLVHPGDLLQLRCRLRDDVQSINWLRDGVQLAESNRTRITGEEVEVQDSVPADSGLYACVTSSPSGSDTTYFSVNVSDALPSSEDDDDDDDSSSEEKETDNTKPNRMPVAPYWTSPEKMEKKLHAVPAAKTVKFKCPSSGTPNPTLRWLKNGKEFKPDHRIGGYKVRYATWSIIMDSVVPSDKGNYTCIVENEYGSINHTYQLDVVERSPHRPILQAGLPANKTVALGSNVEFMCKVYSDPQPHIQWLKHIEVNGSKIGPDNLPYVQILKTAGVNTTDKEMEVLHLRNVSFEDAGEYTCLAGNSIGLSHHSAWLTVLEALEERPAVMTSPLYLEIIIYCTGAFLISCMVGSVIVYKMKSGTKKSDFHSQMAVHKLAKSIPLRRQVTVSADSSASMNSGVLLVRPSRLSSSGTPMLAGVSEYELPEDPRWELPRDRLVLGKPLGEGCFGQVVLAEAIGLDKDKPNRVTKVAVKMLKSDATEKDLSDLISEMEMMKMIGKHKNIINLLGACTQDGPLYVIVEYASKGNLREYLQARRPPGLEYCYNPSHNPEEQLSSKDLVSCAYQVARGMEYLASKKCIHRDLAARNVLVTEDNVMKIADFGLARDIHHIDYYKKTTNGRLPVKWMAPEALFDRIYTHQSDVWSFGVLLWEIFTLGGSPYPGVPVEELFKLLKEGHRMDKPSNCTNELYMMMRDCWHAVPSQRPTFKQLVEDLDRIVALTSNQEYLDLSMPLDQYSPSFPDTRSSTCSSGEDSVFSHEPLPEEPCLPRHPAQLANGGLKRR
Method: as §1

[12] = target: each specific kinase (kinase selectivity panel, Table 2) (Homo sapiens, UniProt P11309); conditions: PIM1
Chain of each specific kinase (kinase selectivity panel, Table 2) (Homo sapiens, UniProt P11309) (P11309 whole entry): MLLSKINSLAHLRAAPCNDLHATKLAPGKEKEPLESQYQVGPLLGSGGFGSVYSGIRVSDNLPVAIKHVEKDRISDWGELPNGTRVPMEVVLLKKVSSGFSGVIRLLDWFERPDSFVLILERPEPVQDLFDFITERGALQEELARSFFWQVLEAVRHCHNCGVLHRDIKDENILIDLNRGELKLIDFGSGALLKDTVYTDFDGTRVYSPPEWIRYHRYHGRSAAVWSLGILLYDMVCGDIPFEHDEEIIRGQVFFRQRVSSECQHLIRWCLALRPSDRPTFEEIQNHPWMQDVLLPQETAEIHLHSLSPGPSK
Method: as §1

[13] = target: each specific kinase (kinase selectivity panel, Table 2) (Homo sapiens, UniProt Q96RR4); conditions: CAMKKb
Method: as §1

[14] = target: each specific kinase (kinase selectivity panel, Table 2) (Homo sapiens, UniProt Q16539); conditions: p38a MAPK
Method: as §1

[15] = target: each specific kinase (kinase selectivity panel, Table 2) (Homo sapiens, UniProt Q05513); conditions: PKCz
Chain of each specific kinase (kinase selectivity panel, Table 2) (Homo sapiens, UniProt Q05513) (Q05513 whole entry): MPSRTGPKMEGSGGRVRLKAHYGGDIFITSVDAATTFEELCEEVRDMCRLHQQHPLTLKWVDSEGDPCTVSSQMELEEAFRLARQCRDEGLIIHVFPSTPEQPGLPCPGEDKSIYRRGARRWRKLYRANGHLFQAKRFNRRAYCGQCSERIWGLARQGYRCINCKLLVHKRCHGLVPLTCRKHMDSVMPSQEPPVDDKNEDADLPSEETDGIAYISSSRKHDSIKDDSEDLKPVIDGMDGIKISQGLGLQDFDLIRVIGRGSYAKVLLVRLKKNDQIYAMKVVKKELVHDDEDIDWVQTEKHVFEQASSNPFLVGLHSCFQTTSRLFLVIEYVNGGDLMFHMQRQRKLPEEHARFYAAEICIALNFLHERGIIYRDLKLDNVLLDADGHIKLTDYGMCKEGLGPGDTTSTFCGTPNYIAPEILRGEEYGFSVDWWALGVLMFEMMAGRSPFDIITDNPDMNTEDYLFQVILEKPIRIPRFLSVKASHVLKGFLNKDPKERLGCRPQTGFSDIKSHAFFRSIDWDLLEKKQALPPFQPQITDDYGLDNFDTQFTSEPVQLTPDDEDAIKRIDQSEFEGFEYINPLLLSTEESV
Method: as §1

[16] = target: each specific kinase (kinase selectivity panel, Table 2) (Homo sapiens, UniProt O14920); conditions: IKKb
Method: as §1

[17] = target: each specific kinase (kinase selectivity panel, Table 2) (Homo sapiens, UniProt O96013); conditions: PAK4
Chain of each specific kinase (kinase selectivity panel, Table 2) (Homo sapiens, UniProt O96013) (O96013 whole entry): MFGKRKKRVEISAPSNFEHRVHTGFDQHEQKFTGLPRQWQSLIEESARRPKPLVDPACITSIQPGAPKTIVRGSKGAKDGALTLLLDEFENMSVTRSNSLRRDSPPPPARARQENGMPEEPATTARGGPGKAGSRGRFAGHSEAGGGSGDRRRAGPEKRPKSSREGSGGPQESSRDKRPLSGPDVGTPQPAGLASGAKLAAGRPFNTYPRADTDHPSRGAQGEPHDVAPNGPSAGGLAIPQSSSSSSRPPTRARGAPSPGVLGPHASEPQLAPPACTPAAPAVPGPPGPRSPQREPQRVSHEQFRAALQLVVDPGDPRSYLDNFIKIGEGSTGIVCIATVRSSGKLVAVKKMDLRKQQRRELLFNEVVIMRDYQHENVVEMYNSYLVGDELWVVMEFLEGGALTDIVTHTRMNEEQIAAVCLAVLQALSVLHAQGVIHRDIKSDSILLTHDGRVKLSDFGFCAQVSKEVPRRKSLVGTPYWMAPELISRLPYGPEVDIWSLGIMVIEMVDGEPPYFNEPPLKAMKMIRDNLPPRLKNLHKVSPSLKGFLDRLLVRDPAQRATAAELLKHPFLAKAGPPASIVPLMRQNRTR
Method: as §1

Compound | percentage inhibition of IGF-1R [1] | percentage inhibition of PRK2 [2] | percentage inhibition of CAMK1 [3] | percentage inhibition of Src [4] | percentage inhibition of MINK1 [5] | percentage inhibition of CK1 [6] | percentage inhibition of RIPK2 [7] | percentage inhibition of PKD1 [8] | percentage inhibition of IRAK4 [9] | percentage inhibition of JAK2 [10] | percentage inhibition of FGF-R1 [11] | percentage inhibition of PIM1 [12] | percentage inhibition of CAMKKb [13] | percentage inhibition of p38a MAPK [14] | percentage inhibition of PKCz [15] | percentage inhibition of IKKb [16] | percentage inhibition of PAK4 [17]
CC[C@H](C)Oc1nccc2[nH]nc(C)c12 [Example 121, 4-((S)-sec-Butoxy)-3-methyl-1H-pyrazolo[4,3-c]pyridine] | 46 percentage | 39 percentage | 5 percentage | 0 percentage | 17 percentage | 31 percentage | 1 percentage | 29 percentage | 12 percentage | 47 percentage | 36 percentage | 15 percentage | 12 percentage | 0 percentage | 0 percentage | 15 percentage | 26 percentage
O=C(CCc1n[nH]c2ccnc(NC3CCCCC3)c12)N1CCC[C@H](c2ccccc2)C1 [Example 172, 3-(4-Cyclohexylamino-1H-pyrazolo[4,3-c]pyridin-3-yl)-1-((R)-3-phenyl-piperidin-1-yl)-propan-1-one] | 18 percentage | 16 percentage | 14 percentage | 6 percentage | 18 percentage | 6 percentage | 0 percentage | 1 percentage | 0 percentage | 12 percentage | 0 percentage | 0 percentage | 21 percentage | 6 percentage | 10 percentage | 22 percentage | 24 percentage

— patent US20170320870A1 (Medical Research Council Technology, priority 2009, published 2017)
